From article PMC6566874, “Comparative study of the antidiabetic potential of Paederia foetida twig extracts and compounds from two different locations in Malaysia” (Pharmaceutical Biology, 2019)

Biological target: T1, α-amylase
T1 construct: PDB 4W93 was used for docking only
Assay: iodine-starch absorbance assay, […] nm
Assay type: biochemical
Conditions: soluble starch substrate, 0.1 M sodium phosphate buffer, 37 °C, 15 min preincubation; read-out: α-Amylase inhibition activity IC50 (μg/mL) / Pahang (PFP)

COc1cc2ccc(=O)oc2cc1O [compound 1, scopoletin]
IC50: 52 ± 130 nM
